The subject of assay [1] is CRF-OE mice. As to the kind of experiment: Hair growth and skin pigmentation after sc injection in adult alopecic CRF-OE mice (Example 1). Format: in vivo. Conditions: for Back Hair Growth Score (BK) / Skin pigmentation (Pg) score: score 0-10, individual mice. An excerpt:
Adult (6-9 month old) male and female C57BL/6 mice that overexpress a rat CRF transgene (Stenzel-Poore et al., Endocrinol., 130:3378-3386, 1992) were used in this Example. […] Moreover, these animals display physical changes, such as excess abdominal fat accumulation, muscle atrophy, thin skin, and alopecia on the back and ventral abdomen area. Alopecia in these animals develops after about 7-8 weeks of age and is fully developed at about 4 months of age. This phenotype, i.e., hair loss in adulthood, is similar to that observed in some forms of human alopecia (e.g., the age-dependent balding of adult, human males (and females)).
CRF-OE mice were housed in standard plastic cages in a controlled environment (temperature=21-23° C.; humidity=30-35%; 12-hour light cycle with lights on 06:00 AM) and fed a standard rodent diet (PROLAB™ RMH 2500). Experiments were conducted in accordance with institutional guidelines.
Eight (8) male and 9 female CRF-OE mice were injected subcutaneously with 5 μg/mouse astressin B or astressin 2B, in 0.1 ml sterile water, once per day for 5 consecutive days. Similar doses of astressin B and astressin 2B previously were shown, respectively, to inhibit elevated ACTH release in adrenalectomized rats for over 12 hours (Rivier et al., J. Med. Chem., 42:3175-3182, 1999) and delay gastric emptying for over 6 hours (Rivier et al., J. Med. Chem., 45:4737-4747, 2002). […] CRF-OE mice similarly injected with saline alone were used as negative controls. Astressin B and astressin 2B peptides were synthesized as previously described (Rivier et al., J. Med. Chem., 45:4737-4747, 2002; Gulyas et al., Proc. Natl. Acad. Sci. USA, 92:10575-10579, 1995) and were diluted with sterile water immediately preceding each injection.
It appeared that hair growth (if any) typically was completed by 4 weeks post-treatment.
Hair growth in CRF-OE mice was assessed using the hair growth scale developed by Vegesna et al. […], 2002) modified to account for phenotypic differences between CRF-OE mice. Scores were made visually as well as using photographs of each mouse at a weekly interval. The degree of alopecia varied between individual CRF-OE mice; thus, the percent difference between the amount of hair present in the test area (described below) before and 4 weeks after treatment was converted to a score of 0-10. A zero score corresponded to a no change in the amount of hair in the test area and a score of 10 corresponded to full hair growth in the entire test area. The scale for monitoring hair growth in CRF-OE mice is more particularly described in Table 2.
The area was defined anteriorly by a line joining the front of the ears; posteriorly by a line joining the pelvic girdles; and laterally, between the lines projecting caudally from each ear root.
Pigmentation of the skin (also referred to as skin color) in the test region was also measured because, in C57BL/6 mice, the skin darkens at the onset of hair growth. A pigmentation score from 0-10 was given to each mouse with a score of 0 corresponding to bright pink skin color/pigment in the entire test region, a score of 1-5 corresponding to increasing intensity of a pale greyish color/pigment of skin in the test region, a score of 6-9 corresponding to increasing but non-confluent darker color/pigment of skin in the test region, and a score of 10 corresponding to black pigmentation of the entire test region. Pigmentation was measured one week after the fifth and final injection because changes (if any) in pigmentation are substantially complete by that time.

For assay [2], the system named is hair follicles of CRF-OE mice. As to the kind of experiment: Histology of dorsal skin hair follicles (H/E) in CRF-OE mice (Example 3). Format: in vivo. As to conditions: for Hair follicle morphology: H/E-stained skin sections of adult CRF-OE mice; for Skin thickness or hair follicle numbers versus wild type mice: adult CRF-OE mice. An excerpt:
Wild-type (C57BL/6) mice, saline-treated CRF-OE mice, CRF-OE mice treated with astressin B or astressin 2B as described in Example 1 (sc injection), and adult CRF-OE mice treated with astressin 2B as described in Example 2 (ip injection), were euthanized, Male mice were used in each case. Whole dorsal skin pieces were harvested for histology four weeks after the final sc injection of the respective peptides or two weeks after ip astressin B or saline injection.
Skin samples were fixed in 4% paraformaldehyde. Paraffin-embedded sections were processed for staining of hematoxylin/eosin and examined by light microscopy. The thickness of the epidermis plus dermis and depth of hair follicles were measured and the number of hair follicles was counted per unit (a field obtained with 10× objective) in a total of 5 units per section.

Assay [3] deals with young CRF-OE mice. As to the kind of experiment: Prevention of hair loss in young (not-yet-alopecic) CRF-OE mice, sc injection (Example 4). It is filed as in vivo. As to conditions: for Skin pigmentation (Pg) score / Ventral Abdomen Hair Score (VAb) / Back Hair Score (BK): sc 5 μg/mouse/day x 5 days, individual mice and group mean; for Skin pigmentation (Pg) score / Ventral Abdomen Hair Score (VAb) / Induction of skin pigmentation / Hair loss / development of alopecia / Back Hair Score (BK): young CRF-OE mice; for Induction of skin pigmentation: first week post injection; for Hair loss / development of alopecia: week 4 to week 16 post treatment. How it is done: Alopecia in this strain fully develops in adulthood at approximately 12 weeks and older.
Young CRF-OE mice (5-6 weeks old) were treated with astressin B, astressin 2B, or vehicle (saline). Treatments were a single, daily subcutaneous injection (0.1 ml volume) of vehicle alone or 5 μg peptide per mouse for five consecutive days. Pigmentation and hair coverage scores were determined pretreatment and 1, 4, 8 and 16 weeks after the last treatment. Hair growth and pigmentation were determined as described in Examples 1 and 2.

Assay [4] deals with CRF1/CRF2 receptor. Conditions: CRF1/CRF2 receptor antagonist; stated without test; cited from earlier work.
Assay [5] concerns young CRF-OE mice. As to the kind of experiment: Astressin B fragments, prevention of hair loss in young CRF-OE mice (Example 9). Format: in vivo. Conditions: 5 μg sc or ip x 5 days, all time points. As for the experimental part: CRF-OE mice similarly injected with 0.1 ml saline alone (or 5 μg astressin 2B in 0.1 ml saline) are used as negative controls. Astressin B fragments are as described in Example 8.

The mark [6] stands for this setting: sc 5 μg/mouse/day x 5 days, adult CRF-OE mice, Week 0 (before injection), female mice.
[7] abbreviates: sc 5 μg/mouse/day x 5 days, adult CRF-OE mice, Week 0 (before injection), male mice.
Setting [8] is: sc 5 μg/mouse/day x 5 days, adult CRF-OE mice, Week 1 after last injection, female mice.
The mark [9] stands for this setting: sc 5 μg/mouse/day x 5 days, adult CRF-OE mice, Week 1 after last injection, male mice.
The mark [10] stands for this setting: sc 5 μg/mouse/day x 5 days, adult CRF-OE mice, Week 0 (before injection).
Where [11] appears, read: sc 5 μg/mouse/day x 5 days, adult CRF-OE mice, Week 1 after last injection.

Where “and” joins values, the source holds several entries; their conditions need not be identical. Identical values can stand only once.

Turning to “(cyclo 30-33)[DPhe12, Nle21,38, Cml27,40, Glu30, Lys33]Ac-h/rCRF9-41 [Astressin B]”, the “Mice responding with increased pigmentation and hair growth” value in assay [1] (female CRF-OE mice, 8 out of 9, sc) is on record as 89%; in assay [1] (male CRF-OE mice, 4 out of 4, sc) it was 100%. The “Back Hair Growth Score (BK)” value in assay [1] (setting [6]) was 0 (5×) and 1; in assay [1] (setting [7]), 0 (2×) and 1 (2×); in assay [1] (setting [8]) it was 2 (5×) and 1; in assay [1] (setting [9]), 2 (2×) and 1 (2×); in assay [1] (sc 5 μg/mouse/day x 5 days, adult CRF-OE mice, Week 4 after last injection, female mice), 2 and 8 (2×) and 9 (2×) and 0; in assay [1] (sc 5 μg/mouse/day x 5 days, adult CRF-OE mice, Week 4 after last injection, male mice), 8 and 9 and 7 and 6. In addition, the “Skin pigmentation (Pg) score” value in assay [1] (setting [6]) was 0; in assay [1] (setting [7]), 0; in assay [1] (setting [8]) it was 2 and 8 (2×) and 10 and 0 and 7; in assay [1] (setting [9]) it was 10 (2×) and 7 and 4; in assay [3] (Before (Week 0)) it was 0. For the same substance, the “Hair growth maintained post treatment” value in assay [1] (sc, adult CRF-OE mice) is “at least 4 weeks”. In assay [1] (sc, adult CRF-OE mice, FIG. 1B), the “Onset of hair growth” value is “as early as one week after the last injection”. Besides, in assay [1] (sc, range over treated adult CRF-OE mice), the Hair growth coverage is given as 20-90%. In addition, in assay [1] (two adult CRF-OE mice observed for an extended period, post treatment), the “Hair growth substantially maintained without subsequent treatment” value is listed as “up to 4 months”. In assay [2], the Hair follicle morphology result was “more developed and defined in structure”. In addition, in assay [2], the “Skin thickness or hair follicle numbers versus wild type mice” value is recorded as “no significant differences”. Further, the “Average depth of hair follicles” value in assay [2] (treated adult CRF-OE mice (FIG. 3B, 4 weeks after last sc treatment), not significantly different from wild type) is recorded as 0.42±0.05 mm. The “Mice with dark pigmentation of the skin” value in assay [3] (1 week after the last injection, fraction of mice) was 5/5. Besides, the “Mice with little or less hair loss (as compared to vehicle-treated subjects)” value in assay [3] (by 4, 8 and 16 weeks after the last injection, fraction of mice) is 4/5. Further, in assay [3] (Week 4), the “Ventral Abdomen Hair Score (VAb)” value is on record as 10. The “Induction of skin pigmentation” value in assay [3] is recorded as “induced skin pigmentation within one week after the final injection”. The figures for the “Hair loss / development of alopecia” value in assay [3] and in assay [3] (listed as astressin 1) were “remained protected from developing full alopecia” and “started to lose hair gradually 2 months after treatment”, respectively. Besides, the “Duration of action (long acting)” value in assay [4] is no less than 24 h.
“cyclo(31-34)[DPhe11, His12, CαMeLeu13,39, Nle17, Glu31, Lys34]Ac-Sau(8-40) [Astressin 2B, reference compound]”: in assay [1] (sc 5 μg/mouse/day x 5 days, adult CRF-OE mice), the “Mice that grew significant amounts of hair” value is given as 0%. Further, in assay [1] (setting [10]), the “Back Hair Growth Score (BK)” value is 0 (2×) and 5; the “Skin pigmentation (Pg) score” value is listed as 0. For the same substance, in assay [1] (setting [11]), the “Back Hair Growth Score (BK)” value came to 0; the “Skin pigmentation (Pg) score” value is 1 and 2 (2×). Moreover, in assay [1] (sc 5 μg/mouse/day x 5 days, adult CRF-OE mice, Week 4 after last injection), the “Back Hair Growth Score (BK)” value stood at 0. For the same substance, in assay [2], the Hair follicle morphology entry is reported as “did not have the normal morphology found in wild-type mice” and the “Skin thickness or hair follicle numbers versus wild type mice” value is recorded as “no significant differences”. Moreover, in assay [3] (Before (Week 0)), the “Back Hair Score (BK)” value is recorded as 9 and the “Skin pigmentation (Pg) score” value is given as 0. The “Back Hair Score (BK)” value in assay [3] (Week 1) was determined as 9. The “Ventral Abdomen Hair Score (VAb)” value in assay [3] (Week 16) turned out to be 2.5. In assay [3], the “Induction of skin pigmentation” value is reported as “moderate induction of skin pigments”; the “Hair loss / development of alopecia” value was “lost hair and developed full alopecia”. Further, the “Hair in the test area” value in assay [5] is recorded as “develop ultimately alopecia in the test area”.

These data come from patent US10166271B2, “Methods for promoting hair growth” (THE REGENTS OF THE UNIVERSITY OF CALIFORNIA, priority 2006, dated 2019).
